Test results as given in ChEMBL document CHEMBL1201862, “PubChem BioAssay data set” (2004).
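Assay format: 96-well plates, 48-hour exposure. Here, GI50 denotes the concentration required for 50% inhibition of growth.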 Activity calls are given as the source filed them. No stated cut-off is given here; in the data, active = GI50 up to about 1.1 µM and inactive = higher.

How the values were obtained:
Experiment in all cases: DTP human tumour cell line panel, 48 h
HT-29 = tested on: HT-29
NCI/ADR-RES = tested on: NCI/ADR-RES
UO-31 = tested on: UO-31
SF-268 = tested on: SF-268
A498 = tested on: A498
SK-MEL-2 = tested on: SK-MEL-2
MCF7 = tested on: MCF7
SF-539 = tested on: SF-539
IGROV-1 = tested on: IGROV-1
MOLT-4 = tested on: MOLT-4
M14 = tested on: M14
ACHN = tested on: ACHN
HOP-62 = tested on: HOP-62
HCT-116 = tested on: HCT-116
EKVX = tested on: EKVX
HCT-15 = tested on: HCT-15
CAKI-1 = tested on: CAKI-1
MDA-N = tested on: MDA-N
SF-295 = tested on: SF-295
HL-60 = tested on: HL-60
SK-MEL-28 = tested on: SK-MEL-28
SW-620 = tested on: SW-620
U-251 = tested on: U-251
MDA-MB-435 = tested on: MDA-MB-435
NCI-H522 = tested on: NCI-H522
NCI-H226 = tested on: NCI-H226
HOP-92 = tested on: HOP-92
RPMI-8226 = tested on: RPMI-8226
OVCAR-4 = tested on: OVCAR-4
786-0 = tested on: 786-0
HCC 2998 = tested on: HCC 2998
OVCAR-8 = tested on: OVCAR-8
KM12 = tested on: KM12
PC-3 = tested on: PC-3
SR = tested on: SR
CCRF-CEM = tested on: CCRF-CEM
SK-OV-3 = tested on: SK-OV-3
OVCAR-3 = tested on: OVCAR-3
LOX IMVI = tested on: LOX IMVI
SK-MEL-5 = tested on: SK-MEL-5
K562 = tested on: K562
DU-145 = tested on: DU-145
NCI-H23 = tested on: NCI-H23
T47D = tested on: T47D
NCI-H460 = tested on: NCI-H460
RXF 393 = tested on: RXF 393
TK-10 = tested on: TK-10
MDA-MB-231 = tested on: MDA-MB-231
Hs-578T = tested on: Hs-578T
UACC-257 = tested on: UACC-257
OVCAR-5 = tested on: OVCAR-5
COLO 205 = tested on: COLO 205
SNB-75 = tested on: SNB-75
UACC-62 = tested on: UACC-62
SNB-19 = tested on: SNB-19
SN12C = tested on: SN12C
A549 = tested on: A549
Malme-3M = tested on: Malme-3M

Measured: GI50

COc1cc(C=C2C(C)=NN(c3cccc(Cl)c3)C23C(Cl)C(=O)N3c2nc3ccccc3s2)ccc1O (configuration not stated)
active: MOLT-4 0.461 µM | HL-60 0.546 µM | SR 0.111 µM
inactive: HT-29 4.53 µM | NCI/ADR-RES 38.8 µM | UO-31 20.7 µM | SF-268 3.09 µM | A498 17.9 µM | SK-MEL-2 17.5 µM | MCF7 28.2 µM | SF-539 35.4 µM | IGROV-1 15.8 µM | M14 11.6 µM | ACHN 19.2 µM | HOP-62 20.4 µM | HCT-116 19.9 µM | EKVX 31.4 µM | CAKI-1 26.3 µM | MDA-N 16.3 µM | SF-295 37.1 µM | SK-MEL-28 23.3 µM | SW-620 10.7 µM | U-251 15 µM | MDA-MB-435 12.4 µM | NCI-H522 3.5 µM | NCI-H226 22.4 µM | HOP-92 6.7 µM | RPMI-8226 7.26 µM | OVCAR-4 28.5 µM | 786-0 19.8 µM | HCC 2998 2.56 µM | OVCAR-8 16.8 µM | KM12 5.85 µM | PC-3 14.9 µM | CCRF-CEM 2.07 µM | SK-OV-3 26.3 µM | OVCAR-3 26.4 µM | LOX IMVI 18.1 µM | SK-MEL-5 17.2 µM | K562 3.61 µM | DU-145 21.9 µM | NCI-H23 18.4 µM | T47D 27 µM | NCI-H460 25.4 µM | RXF 393 13.5 µM | TK-10 30.7 µM | MDA-MB-231 4.08 µM | Hs-578T 7.36 µM | UACC-257 23.1 µM | OVCAR-5 20.7 µM
20.7 µM: HCT-15

CCC1C(=O)C[C@H]2[C@@H]3C(O)CC4=CC(=O)CC[C@]4(C)[C@H]3CC[C@]12C (some centres not stated)
inactive: HT-29 > 50 µM | NCI/ADR-RES > 50 µM | UO-31 > 50 µM | SF-268 > 50 µM | A498 > 50 µM | COLO 205 > 50 µM | SNB-75 > 50 µM | SK-MEL-2 > 50 µM | MCF7 > 50 µM | SF-539 > 50 µM | IGROV-1 > 50 µM | MOLT-4 > 50 µM | M14 > 50 µM | ACHN > 50 µM | HOP-62 > 50 µM | HCT-116 > 50 µM | EKVX > 50 µM | UACC-62 > 50 µM | CAKI-1 > 50 µM | SF-295 > 50 µM | HL-60 > 50 µM | SK-MEL-28 > 50 µM | SW-620 > 50 µM | U-251 > 50 µM | MDA-MB-435 > 50 µM | NCI-H522 > 50 µM | HOP-92 > 50 µM | RPMI-8226 > 50 µM | SNB-19 > 50 µM | OVCAR-4 > 50 µM | 786-0 > 50 µM | HCC 2998 > 50 µM | OVCAR-8 > 50 µM | KM12 > 50 µM | PC-3 > 50 µM | CCRF-CEM > 50 µM | SN12C > 50 µM | SK-OV-3 > 50 µM | OVCAR-3 > 50 µM | LOX IMVI > 50 µM | SK-MEL-5 > 50 µM | K562 > 50 µM | DU-145 > 50 µM | A549 > 50 µM | NCI-H23 > 50 µM | T47D > 50 µM | NCI-H460 > 50 µM | TK-10 > 50 µM | MDA-MB-231 > 50 µM | Malme-3M 25.8 µM | Hs-578T > 50 µM | UACC-257 > 50 µM | OVCAR-5 > 50 µM
> 50 µM: HCT-15

Clc1ccc(OCc2nnc3sc(SSc4nn5c(COc6ccc(Cl)cc6)nnc5s4)nn23)cc1
inactive: HT-29 > 100 µM | NCI/ADR-RES > 100 µM | UO-31 52 µM | SF-268 > 100 µM | COLO 205 > 100 µM | SNB-75 > 100 µM | SK-MEL-2 > 100 µM | SF-539 > 100 µM | IGROV-1 > 100 µM | M14 > 100 µM | ACHN > 100 µM | HOP-62 > 100 µM | HCT-116 > 100 µM | EKVX 66.5 µM | SF-295 > 100 µM | HL-60 > 100 µM | SK-MEL-28 > 100 µM | SW-620 > 100 µM | U-251 > 100 µM | MDA-MB-435 92.9 µM | NCI-H522 63.1 µM | NCI-H226 > 100 µM | RPMI-8226 44.8 µM | SNB-19 > 100 µM | 786-0 > 100 µM | OVCAR-8 > 100 µM | KM12 > 100 µM | SN12C > 100 µM | SK-OV-3 > 100 µM | LOX IMVI > 100 µM | SK-MEL-5 60.8 µM | K562 74.3 µM | DU-145 > 100 µM | A549 > 100 µM | NCI-H23 > 100 µM | T47D 49.5 µM | NCI-H460 > 100 µM | MDA-MB-231 > 100 µM | Malme-3M > 100 µM | Hs-578T > 100 µM | UACC-257 > 100 µM | OVCAR-5 > 100 µM
